The results in this text go back to PubChem BioAssay AID1259407 (Chemical Carcinogenesis Research Information System (CCRIS), 2018).

The data set concerns CCRIS mutagenicity, Ames/micronucleus/aberration tests. Description: CCRIS mutagenicity studies.
Where [1] appears, read: Test System: AMES SALMONELLA TYPHIMURIUM, Strain/Indicator: TA98, Metabolic Activation: NONE, Method: STANDARD PLATE.
Setting [2] is: Test System: AMES SALMONELLA TYPHIMURIUM, Strain/Indicator: TA100, Metabolic Activation: NONE, Method: STANDARD PLATE.
Setting [3] is: Test System: AMES SALMONELLA TYPHIMURIUM, Strain/Indicator: TA98, Metabolic Activation: NONE, Method: PREINCUBATION
The mark [4] stands for this setting: Test System: AMES SALMONELLA TYPHIMURIUM, Strain/Indicator: TA100, Metabolic Activation: NONE, Method: PREINCUBATION

Each structure is given as a SMILES string. Calls of active or inactive are those of the source. No rule for the calls is given here.

As to `Cc1cccc(O)c1N`, the mutagenic call runs as follows: (Test System: AMES SALMONELLA TYPHIMURIUM, Strain/Indicator: TA98, Metabolic Activation: HAMSTER LIVER S-9, AROCLOR 1254, Method: STANDARD PLATE) “inactive; negative”; under setting [1], “inactive; negative”; (Test System: AMES SALMONELLA TYPHIMURIUM, Strain/Indicator: TA98, Metabolic Activation: RAT LIVER S-9, AROCLOR 1254, Method: STANDARD PLATE) “inactive; negative”; (Test System: AMES SALMONELLA TYPHIMURIUM, Strain/Indicator: TA100, Metabolic Activation: HAMSTER LIVER S-9, AROCLOR 1254, Method: STANDARD PLATE) “inactive; negative”; under setting [2], “inactive; negative”; (Test System: AMES SALMONELLA TYPHIMURIUM, Strain/Indicator: TA100, Metabolic Activation: RAT LIVER S-9, AROCLOR 1254, Method: STANDARD PLATE) “inactive; negative”. Moreover, the mutagenic call is “inactive; negative” (Test System: AMES SALMONELLA TYPHIMURIUM, Strain/Indicator: TA102, Metabolic Activation: HAMSTER LIVER S-9, AROCLOR 1254, Method: STANDARD PLATE); “inactive; negative” (Test System: AMES SALMONELLA TYPHIMURIUM, Strain/Indicator: TA102, Metabolic Activation: NONE, Method: STANDARD PLATE); “inactive; negative” (Test System: AMES SALMONELLA TYPHIMURIUM, Strain/Indicator: TA102, Metabolic Activation: RAT LIVER S-9, AROCLOR 1254, Method: STANDARD PLATE); “inactive; negative” (Test System: AMES SALMONELLA TYPHIMURIUM, Strain/Indicator: TA1535, Metabolic Activation: HAMSTER LIVER S-9, AROCLOR 1254, Method: STANDARD PLATE); “inactive; negative” (Test System: AMES SALMONELLA TYPHIMURIUM, Strain/Indicator: TA1535, Metabolic Activation: NONE, Method: STANDARD PLATE); “inactive; negative” (Test System: AMES SALMONELLA TYPHIMURIUM, Strain/Indicator: TA1535, Metabolic Activation: RAT LIVER S-9, AROCLOR 1254, Method: STANDARD PLATE). In addition, the mutagenic call reads like this: (Test System: AMES SALMONELLA TYPHIMURIUM, Strain/Indicator: TA1537, Metabolic Activation: HAMSTER LIVER S-9, AROCLOR 1254, Method: STANDARD PLATE) “inactive; negative”; (Test System: AMES SALMONELLA TYPHIMURIUM, Strain/Indicator: TA1537, Metabolic Activation: NONE, Method: STANDARD PLATE) “inactive; negative”; (Test System: AMES SALMONELLA TYPHIMURIUM, Strain/Indicator: TA1537, Metabolic Activation: RAT LIVER S-9, AROCLOR 1254, Method: STANDARD PLATE) “inactive; negative”; (Test System: MOUSE LYMPHOMA, Strain/Indicator: L5178Y (TK+/TK-), Metabolic Activation: NONE, Method: SUSPENSION/PLATE) “active; positive. reevaluation of results: positive”; (Test System: MOUSE LYMPHOMA, Strain/Indicator: L5178Y (TK+/TK-), Metabolic Activation: RAT, LIVER, S-9, AROCLOR 1254, Method: SUSPENSION/PLATE) “active; positive. reevaluation of results: equivocal”.
Take `Cc1ccc2ccc3ccc(C)cc3c2c1`: the mutagenic call runs as follows: (Test System: AMES SALMONELLA TYPHIMURIUM, Strain/Indicator: TA97, Metabolic Activation: NONE, Method: STANDARD PLATE) “inactive; negative”; (Test System: AMES SALMONELLA TYPHIMURIUM, Strain/Indicator: TA97, Metabolic Activation: RAT, LIVER, S-9, PCB, Method: STANDARD PLATE) “inactive; negative”; under setting [1], “inactive; negative”; (Test System: AMES SALMONELLA TYPHIMURIUM, Strain/Indicator: TA98, Metabolic Activation: RAT, LIVER, S-9, PCB, Method: STANDARD PLATE) “active; positive”; under setting [2], “inactive; negative”; (Test System: AMES SALMONELLA TYPHIMURIUM, Strain/Indicator: TA100, Metabolic Activation: RAT, LIVER, S-9, PCB, Method: STANDARD PLATE) “inactive; negative”.
Regarding `CCCN(CC(C)O)N=O` (centres undefined), the mutagenic call (Test System: CHINESE HAMSTER V-79, Strain/Indicator: V-79/OUABAIN, Metabolic Activation: HAMSTER, HEPATOCYTES, Method: CELL-MEDIATED) is “active; positive”.
As to `Cc1ccc(N(CCO)CCO)cc1`, the mutagenic call (Test System: AMES SALMONELLA TYPHIMURIUM, Strain/Indicator: TA1535, Metabolic Activation: RAT, LIVER, S-9, AROCLOR 1254 (2.5%), Method: PREINCUBATION) is “active; positive”; the mutagenic call (Test System: Mouse lymphoma, Strain/Indicator: L5178Y (tk+/tk-), Metabolic Activation: None, Method: Suspension/plate) was “inactive; negative”; the mutagenic call (Test System: Mouse lymphoma, Strain/Indicator: L5178Y (tk+/tk-), Metabolic Activation: Rat, Liver, S-9, Aroclor 1254, Method: Suspension/plate) is “inconclusive (previous evaluation equivocal)”.
`CC(=O)C(C)=O`: the mutagenic call under setting [3] was “inactive; negative”; the mutagenic call (Test System: AMES SALMONELLA TYPHIMURIUM, Strain/Indicator: TA98, Metabolic Activation: RAT, LIVER, S-9, AROCLOR 1254, Method: PREINCUBATION) was “inactive; negative”; the mutagenic call under setting [4] is “inactive; negative”; the mutagenic call under setting [2] was “active; positive”; the mutagenic call (Test System: AMES SALMONELLA TYPHIMURIUM, Strain/Indicator: TA100, Metabolic Activation: RAT, LIVER, S-9, AROCLOR 1254, Method: PREINCUBATION) is “inactive; negative”; the mutagenic call (Test System: AMES SALMONELLA TYPHIMURIUM, Strain/Indicator: TA100, Metabolic Activation: RAT, LIVER, S-9, PHENOBARBITAL, Method: STANDARD PLATE) was “active; positive”. Further, the mutagenic call is “active; positive” (Test System: AMES SALMONELLA TYPHIMURIUM, Strain/Indicator: TA102, Metabolic Activation: NONE, Method: PREINCUBATION); “active; positive” (Test System: AMES SALMONELLA TYPHIMURIUM, Strain/Indicator: TA102, Metabolic Activation: RAT, LIVER, S-9, AROCLOR 1254, Method: PREINCUBATION); “active; positive” (Test System: AMES SALMONELLA TYPHIMURIUM, Strain/Indicator: TA104, Metabolic Activation: NONE, Method: PREINCUBATION); “inactive; negative” (Test System: AMES SALMONELLA TYPHIMURIUM, Strain/Indicator: TA1535, Metabolic Activation: NONE, Method: PREINCUBATION); “inactive; negative” (Test System: AMES SALMONELLA TYPHIMURIUM, Strain/Indicator: TA1537, Metabolic Activation: NONE, Method: PREINCUBATION); “inactive; negative” (Test System: AMES SALMONELLA TYPHIMURIUM, Strain/Indicator: TA1538, Metabolic Activation: NONE, Method: PREINCUBATION). The mutagenic call (Test System: E. COLI, Strain/Indicator: WP2 UVRA, Metabolic Activation: NONE, Method: PREINCUBATION) was “inactive; negative”.
As for `CC(=O)NO`, the mutagenic call is, setting by setting: under setting [1], “active; positive”; (Test System: AMES SALMONELLA TYPHIMURIUM, Strain/Indicator: TA98, Metabolic Activation: RAT, LIVER, S-9, Method: STANDARD PLATE) “active; positive”; (Test System: AMES SALMONELLA TYPHIMURIUM, Strain/Indicator: TA100, Metabolic Activation: RAT, LIVER, S-9, Method: STANDARD PLATE) “inactive; negative”.
`CC(=O)Nc1ccc2cccnc2c1`: the mutagenic call by setting is: under setting [3], “inactive; negative”; (Test System: AMES SALMONELLA TYPHIMURIUM, Strain/Indicator: TA98, Metabolic Activation: RAT, LIVER, S-9, KANECHLOR 500, Method: PREINCUBATION) “active; positive”; under setting [4], “inactive; negative”; (Test System: AMES SALMONELLA TYPHIMURIUM, Strain/Indicator: TA100, Metabolic Activation: RAT, LIVER, S-9, KANECHLOR 500, Method: PREINCUBATION) “active; positive”.
`c1scc2c1-c1cscc1C1OC21` (centres undefined): the mutagenic call is, setting by setting: under setting [1], “active; positive”; under setting [2], “active; positive”.
